Holding throughout (assay type): cell-based
The test system of test [1] is human platelets. In words: Thrombin-induced platelet activation, surface CD62P by flow cytometry. To be noted: 0.1 U/ml thrombin; for maximal inhibitory concentration (MIC) for thrombin: AHL pre-incubation 15 minutes at 37° C., CD62P; for inhibition of platelet activation by thrombin: several concentrations of AHL.
In test [2] the test system is human platelets. Briefly: aggIgG-induced platelet activation, surface CD62P by flow cytometry. To be noted: aggIgG 50 or 500 μg/ml; several concentrations of AHL.
Test [3] has as its system human platelets. Briefly: Platelet tyrosine phosphorylation (whole cell lysates, SDS-PAGE, anti-phosphotyrosine blot). The conditions noted are these: 20 μM 12C-AHL. As for the experimental part: FIGS. 3A-3C: Effect of AHLs on tyrosine phosphorylation. Human platelets were incubated with PBS or 12C-AHL then left unstimulated or stimulated with […] aggIgG or 0.1 Um′ thrombin. Whole cell lysates were prepared as described in the examples and blotted for anti-phosphotyrosine or anti-GAPDH as loading control. (FIG. 3A.) To determine band intensities, total band intensity in the phosphorylation gel was divided by the GAPDH signal and plotted as total band intensity. (FIG. 3B.) Intensity of the indicated band was compared to GAPDH and plotted as band intensity. (FIG. 3C.)
Results from the above experiments indicate that AHLs are altering platelet signaling downstream of FcγRIIa (the receptor for aggIgG) and thrombin receptors (PAR1/4) to a lesser extent. To test this, human platelets were incubated with PBS or 20 μM 12C-AHL for 15 min at 37° C. followed by stimulation with thrombin or aggIgG. Whole cell lysates were separated by SDS-PAGE and blotted for phosphotyrosine.

In test [4] the test system is human platelets. In words: Platelet phagocytosis of IgG-coated beads through FcγRIIa (flow cytometry). The conditions noted are these: FITC-IgG-coated 1.5 μm beads, 30 minutes. As for the experimental part:
FIGS. 4A-4C: Effect of AHLs on platelet-mediated phagocytosis. Human platelets were incubated as indicated in the examples and analyzed by flow cytometry for FITC-IgG and PE-anti-IgG. (FIG. 4A.) Platelets were incubated with PBS, 10C- or 12C-AHLs or cytochalasin D (positive control to block phagocytosis), then exposed to FITC-IgG-coated […] beads for 30 minutes, labeled with anti-IgG conjugated to PE and analyzed by flow cytometry for FITC-IgG and PE-anti-IgG. (FIG. 4B.) Platelets were treated as in FIG. 4B and surface CD62P expression was measured by flow cytometry. * p<0.01, ** p<0.005. (FIG. 4C.)
Polystyrene beads, 1.5 μm in diameter, (Polysciences, Warrington, Pa.) were opsonized for 2 hours at 21° C. in a 10 mg/ml solution FITC labeled human IgG (SigmaAldrich, St. Louis, Mo.) or unlabeled human IgG for controls. After washing three times in PBS, beads were then resuspended in buffer and counted via hemacytometer. […]
Samples were prepared for flow cytometry and platelets with associated beads were gated on CD42b+/FITC+ and analyzed for internal/external by the absence/presence of PE expression on a FACSCalibur (B-D Biosciences). […] Data were analyzed using Cell Quest (B-D Biosciences) and FlowJo (Tree Star, Inc., Ashland, Oreg.) software.
Because AHLs inhibit signaling (especially aggIgG-induced tyrosine phosphorylation), whether other platelet activities are inhibited was evaluated. […]

Where only a bound is given, the exact number is not on record here.

We go through three compounds from patent US10702497B2, “Use of acyl-homoserine lactone derivatives as anti-thrombotic agents” (The University of Toledo, priority 2015, dated 2020).

Consider `CCCCCCCC(=O)CC(=O)N[C@H]1CCOC1=O` [10C-AHL, N-(3-oxodecanoyl)-L-homoserine lactone], for which, in the test with human platelets [1], the “maximal inhibitory concentration (MIC) for thrombin” value worked out at 200 µM and the “inhibition of platelet activation by thrombin” value is given as “inhibit platelet activation”. For the same compound, in the test with human platelets [2], the “inhibition of platelet activation by aggIgG” value is recorded as “inhibit platelet activation”.

`CCCCCCCCCC(=O)CC(=O)N[C@@H]1CCOC1=O` [12C-AHL, N-oxo-dodecanoyl-L-homoserine lactone]: in the test with human platelets [1], the “maximal inhibitory concentration (MIC) for thrombin” value was 200 µM and the “inhibition of platelet activation by thrombin” value is reported as “inhibit platelet activation”. Also, the “effect on tyrosine phosphorylation in unstimulated platelets” value with human platelets [3] (15 min at 37° C., unstimulated) was “marginal effect”. The “effect on tyrosine phosphorylation in platelets stimulated with thrombin” value in the test with human platelets [3] (0.1 U/ml thrombin) is “marginal effect”. For the same compound, in the test with human platelets [3] (aggIgG stimulation), the “effect on phosphorylation induced by aggIgG” value was “nearly completely abolished”. The “inhibition of platelet activation by aggIgG” value in the test on human platelets [2] is “inhibit platelet activation”.

Consider `C=C1[C@@H](C)[C@H]2[C@H](Cc3ccccc3)NC(=O)[C@]23[C@H](OC(C)=O)/C=C/[C@@](C)(O)C(=O)[C@@H](C)C/C=C/[C@H]3[C@@H]1O` [cytochalasin D], for which the “inhibition of the phagocytic activity of platelets” value in the test on human platelets [4] is listed as more than 90%.
